Among the test systems are DLD-1; DMS-273; KM-20L2; LXFL 529; M19-MEL; XF498; HOP-18; RXF 631; SNB-78.
Holding throughout (assay): NCI anticancer screen, dose series, 48 h

These results are taken from ChEMBL document CHEMBL1201862, “PubChem BioAssay data set” (2004).

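Exposure lasted 48 hours, with cells grown in 96-well plates and compounds tested at five concentrations. Here, GI50 denotes the concentration required for 50% inhibition of growth.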 Active and inactive are the calls of the source. No stated cut-off is given here; in the data, active = GI50 up to about 1.1 µM and inactive = higher.

With `O=C1Nc2ccc(Cl)c(I)c2C1=O`, the GI50 is 16.9 µM (inactive) in the assay with DLD-1; 16.5 µM (inactive) in the assay with DMS-273; 19.7 µM (inactive) in the assay on KM-20L2; 16.8 µM (inactive) in the assay with LXFL 529; 11.7 µM (inactive) in the assay on M19-MEL; 18.3 µM (inactive) in the assay on XF498.
Consider `Cc1ccccc1C(C#N)C(=O)C(=O)Nc1nc([N+](=O)[O-])cs1` (stereo not drawn), for which the GI50 in the assay on DLD-1, in the assay on HOP-18, in the assay on KM-20L2, in the assay on LXFL 529, in the assay with M19-MEL and in the assay with RXF 631 was > 100 µM (inactive) throughout. Besides, the GI50 with SNB-78 and in the assay on XF498 was > 100 µM (inactive) throughout.
Take `CC1=CCCC(OC(N)=O)C1` (stereo not drawn): the GI50 in the assay with DLD-1, in the assay with DMS-273, with HOP-18, in the assay with KM-20L2, with LXFL 529 and in the assay on M19-MEL was > 100 µM (inactive) in each case. Moreover, the GI50 in the assay on RXF 631, in the assay with SNB-78 and in the assay with XF498 was > 100 µM (inactive) in each case.
As to `CCOC(=O)C[C@@]12CCCN[C@]1(C)CCc1ccccc12`, the GI50 in the assay on DLD-1, in the assay with HOP-18, with KM-20L2, in the assay with LXFL 529, in the assay on M19-MEL and with SNB-78 was > 100 µM (inactive) in each case. The GI50 in the assay on XF498 is > 100 µM (inactive).
On to `O=C(NCc1ccccc1)c1cc2cc(O)c(O)cc2cn1`, for which the GI50 with DLD-1 is 36.7 µM (inactive); in the assay with DMS-273 it was 4.7 µM (inactive); in the assay on HOP-18, 13.8 µM (inactive); with KM-20L2, 29.4 µM (inactive); with LXFL 529, 16 µM (inactive); in the assay with M19-MEL, 20.1 µM (inactive). For the same compound, the GI50 in the assay on SNB-78 is 50.5 µM (inactive); with XF498, 28.4 µM (inactive).
`O=C(O)CNS(=O)(=O)c1ccc(NC(=O)c2ccccc2[N+](=O)[O-])cc1`: the GI50 in the assay with DLD-1, in the assay with DMS-273, in the assay with HOP-18, in the assay with KM-20L2, in the assay on LXFL 529 and in the assay on M19-MEL was > 100 µM (inactive) in each case. Further, the GI50 in the assay on XF498 is > 100 µM (inactive).
In the case of `ClC(Cl)=C1C(=C(Cl)Cl)C(Cl)(Cl)C1(Cl)Cl`, the GI50 in the assay on DLD-1 is 1.22 µM (inactive); with DMS-273, 2.64 µM (inactive); with HOP-18, 5.9 µM (inactive); in the assay with KM-20L2, 4.41 µM (inactive); in the assay on LXFL 529 it was 0.938 µM (active); in the assay on M19-MEL, 2.72 µM (inactive). The values for the GI50 in the assay with RXF 631, in the assay on SNB-78 and in the assay with XF498 were 3.21 µM (inactive), 2.34 µM (inactive) and 9.2 µM (inactive), respectively.
In the case of `C=CC(C)(C)[C@@]12CC3C(=O)N[C@@H](Cc4ccccc4)C(=O)N3[C@@H]1N(C(C)=O)c1ccccc12` (stereo partly drawn), the GI50 is 66.2 µM (inactive) in the assay on DLD-1; 61.7 µM (inactive) in the assay with DMS-273; 64 µM (inactive) in the assay on HOP-18; > 100 µM (inactive) in the assay with KM-20L2; 52.6 µM (inactive) in the assay on LXFL 529; 87.5 µM (inactive) in the assay on M19-MEL. In addition, the GI50 with RXF 631 was 58.7 µM (inactive); in the assay with SNB-78 it was > 100 µM (inactive); with XF498 it was > 100 µM (inactive).
With `O=S1(=O)c2cc(S(=O)(=O)n3ccnc3)ccc2NC2=NCCCN21`, the GI50 was 28.1 µM (inactive) with DLD-1; 42.2 µM (inactive) with HOP-18; 22.3 µM (inactive) in the assay on KM-20L2; 31.5 µM (inactive) with LXFL 529; 35.3 µM (inactive) in the assay on M19-MEL.
As to `Oc1ccc(O)c(-n2cccn2)c1-n1cccn1`, the GI50 is > 100 µM (inactive) with DLD-1; > 100 µM (inactive) in the assay on DMS-273; > 100 µM (inactive) in the assay with KM-20L2; > 100 µM (inactive) with LXFL 529; 35.8 µM (inactive) in the assay with M19-MEL; > 100 µM (inactive) in the assay on SNB-78. Besides, the GI50 with XF498 is > 100 µM (inactive).
In the case of `NC(=S)N/N=C1/CN(c2ccc(Cl)c(Cl)c2)CC(=O)C1c1nc2ccccc2s1` (stereo not drawn), the GI50 with DLD-1 is > 100 µM (inactive); in the assay with DMS-273, > 100 µM (inactive); in the assay on KM-20L2, > 100 µM (inactive); in the assay on LXFL 529, 37.8 µM (inactive); with M19-MEL, > 100 µM (inactive); with SNB-78 it was > 100 µM (inactive). In addition, in the assay on XF498, the GI50 was > 100 µM (inactive).
Regarding `CCN(CC)CCSc1c2ccccc2nc2c(OC)ccc(OC)c12`, the GI50 with DLD-1 is 1.99 µM (inactive); in the assay on DMS-273, 5.08 µM (inactive); in the assay with KM-20L2 it was 3.39 µM (inactive); in the assay on LXFL 529, 2.3 µM (inactive); in the assay with M19-MEL it was 8 µM (inactive); with RXF 631, 2.93 µM (inactive). For the same compound, the results for the GI50 with SNB-78 and with XF498 were 5.31 µM (inactive) and 2.42 µM (inactive), respectively.
With `CCOC(=O)C1C2CCC(C2)C1(CCl)C(=O)OCC` (stereo not drawn), the GI50 in the assay with DMS-273, in the assay on HOP-18, in the assay on KM-20L2, in the assay with LXFL 529, in the assay with M19-MEL and in the assay on RXF 631 was > 100 µM (inactive) in each case.
For the compound `COc1ccc(/C=C(\Cl)c2ccc(OC)c(OC)c2)cc1OC`, the GI50 with DLD-1, in the assay with DMS-273, in the assay with KM-20L2, with LXFL 529 and in the assay with M19-MEL was > 100 µM (inactive) throughout.
`O=C(O)C1(C(=O)O)CC1`: the GI50 in the assay on DLD-1, in the assay on DMS-273, with HOP-18, in the assay with KM-20L2, in the assay on LXFL 529 and with M19-MEL was > 100 µM (inactive) each time. Further, the GI50 in the assay on RXF 631, in the assay with SNB-78 and in the assay with XF498 was > 100 µM (inactive) in each case.
Regarding `CCc1ccccc1NC(=O)CCc1nnc(S)[nH]1`, the GI50 in the assay on DLD-1, in the assay on DMS-273, with KM-20L2, with LXFL 529, in the assay on M19-MEL and in the assay on RXF 631 was > 100 µM (inactive) in each case. Besides, the GI50 in the assay with SNB-78 and with XF498 was > 100 µM (inactive) throughout.
Regarding `CS(=O)(=O)c1ccc(-c2cc(-c3ccc(S(C)(=O)=O)cc3)[n+](-c3cc(-c4ccc(S(C)(=O)=O)cc4)c([O-])c(-c4ccc(S(C)(=O)=O)cc4)c3)c(-c3ccc(S(C)(=O)=O)cc3)c2)cc1`, the GI50 in the assay on DLD-1, in the assay with DMS-273, in the assay on HOP-18, in the assay on KM-20L2, with LXFL 529 and in the assay with M19-MEL was > 100 µM (inactive) throughout. The GI50 in the assay with RXF 631 and with SNB-78 was > 100 µM (inactive) throughout.
For the compound `C#CCN(N=O)C(=O)ON1C(=O)CCC1=O`, the GI50 in the assay on DLD-1, in the assay with DMS-273, in the assay with HOP-18, in the assay with KM-20L2, in the assay on LXFL 529 and in the assay with M19-MEL was > 100 µM (inactive) throughout. Also, the GI50 with SNB-78 was > 100 µM (inactive).
Regarding `CC1=C(C#N)C(=O)CC(c2ccc(Cl)cc2)N(C)N1` (stereo not drawn), the GI50 in the assay on DLD-1 was > 100 µM (inactive); in the assay on HOP-18, 24.4 µM (inactive); in the assay with LXFL 529 it was > 100 µM (inactive); in the assay on SNB-78, > 100 µM (inactive); in the assay on XF498, > 100 µM (inactive).
As for `FC(F)(F)c1ccccc1/C=N/C12CC3CC(CC(C3)C1)C2`, the GI50 in the assay on DMS-273, in the assay with KM-20L2, in the assay on M19-MEL, in the assay with SNB-78 and in the assay with XF498 was > 100 µM (inactive) throughout.
Take `COC(=O)CCC12CCC(=O)C1[C@@H](C(=O)OC)C[C@H]2C(=O)OC` (stereo partly drawn): the GI50 in the assay with DLD-1, in the assay on DMS-273, with HOP-18, in the assay with KM-20L2, in the assay on LXFL 529 and in the assay with M19-MEL was > 100 µM (inactive) each time. The GI50 in the assay with RXF 631, in the assay on SNB-78 and with XF498 was > 100 µM (inactive) each time.
In the case of `O=S(=O)(c1ccccc1)N1N=C2c3ccccc3CCC[C@H]2C1c1ccccc1` (stereo partly drawn), the GI50 with DLD-1, in the assay on DMS-273, with HOP-18, in the assay on KM-20L2, in the assay with LXFL 529 and in the assay with M19-MEL was > 100 µM (inactive) in each case. Moreover, the GI50 with SNB-78 and in the assay on XF498 was > 100 µM (inactive) in each case.
Regarding `N#CC(C#N)=C(C(C#N)C#N)C(C#N)C#N`, the GI50 with DLD-1, in the assay with DMS-273, with KM-20L2, with LXFL 529, with M19-MEL and with RXF 631 was > 100 µM (inactive) throughout. In addition, the GI50 with SNB-78 and with XF498 was > 100 µM (inactive) in each case.
